Reference: publication PMC5641330, “Prediction of a Therapeutic Dose for Buagafuran, a Potent Anxiolytic Agent by Physiologically Based Pharmacokinetic/Pharmacodynamic Modeling Starting from Pharmacokinetics in Rats and Human” (Frontiers in Pharmacology, 2017)
Where two headings read alike, the source gives them in different places.

Key:
[1] = Plasma protein binding by equilibrium dialysis, rat plasma; format: in vitro ADME; settings: 0.5–2 μg/mL
Procedure: The plasma protein binding of buagafuran (0.5–2 μg/mL) was investigated by equilibrium dialysis. Aliquots (0.5 mL) of plasma were dialyzed against 10 mL phosphate buffered saline containing a ^3H-buagafuran tracer over a membrane with an 8,000- to 12,000-dalton molecular weight cutoff. Dialysis experiment was performed for 60 h at 4 °C. After the dialysis period, 100 μL of the PBS fraction (containing unbound buagafuran) and 100 μL of the plasma fraction (containing both bound and unbound drug) was taken for liquid scintillation counting. The ratio of buagafuran concentration in buffer to that in plasma was applied to calculate the unbound fraction (Fu).

P-gp = tested on: P-gp; design: method as in Li, 2010; settings: ref Li, 2010; cited from earlier work
[2] = Clinical plasma PK in healthy volunteers after oral dosing (observed); format: in vivo; settings: male, human; for AUC(0-t): read-out: AUC0-t Observed; for AUC(0-inf): read-out: AUC0-∞ Observed; for MRT inf: read-out: MRT(0-∞) Observed
Procedure: The study protocol was approved by the Ethics Committee of Peking Union Medical College Hospital approved (Permission Number: 09103), and the Informed Consent Form was signed by all subjects before the study. PVP formulation of buagafuran was packed into capsules for oral administration. In a study of open-label, randomized, cross-over and dose-ranging design, 12 healthy male Chinese volunteers (aged 22–40 with weighing 55–70 kg) received a single oral dose of buagafuran (30, 60, and 120 mg). Serial blood samples were collected up to 48 h. In a phase I, randomized and multiple oral dose study, 5 healthy male Chinese volunteers (aged 20–31 with weighing 55–73 kg) received once-daily oral dose of 60 mg buagafuran for 7 days. On day 1 and 7, plasma samples were collected at the designed time points. Detailed clinical data was previously reported ([Yang et al., 2011], [2013]).
Pharmacokinetic parameters were determined with a non-compartmental model using WinNonlin v 6.0 (Pharsight Corporation, Mountain View, CA, United States). The area under the compound concentration versus time curve from time zero to the last time point (AUC0-t) and extrapolated to infinity (AUC0-∞) and the peak plasma concentration (Cmax) were calculated.

[3] = design: method as in Chen X. et al., 2013; settings: clinical data; ref Chen X. et al., 2013; cited from earlier work
[4] = design: method as in Hu et al., 2011; settings: rats, oral administration; ref Hu et al., 2011; cited from earlier work
male Wistar rats = test: Elevated plus-maze (EPM) test in the rat, with sigmoid Emax PK/PD fit; format: in vivo
Procedure: Anxiolytic activity of buagafuran was evaluated by EPM model. The rat EPM consisted of two open arms (50 cm × 10 cm) and two closed arms (50 cm × 10 cm × 40 cm) extending from the central platform (10 cm × 10 cm), the maze rising from the floor by 50 cm.
Male Wistar rats, weighing between 130 and 160 g, were handled daily for 1 week prior to the study and were fasted for 12 h before experiment. Group I: the treated rats received buagafuran formulation of PVP (2, 4, and 8 mg/kg) via the oral route, while the rats that served as control group received vehicle (PVP). Experiments were carried out 10 min after oral administration of drugs or vehicles. Group II: Rats were evaluated 5, 10, 15, 30, 60, 90, 120, and 180 min after oral treatment with buagafuran (4 mg/kg). During a typical test, place each rat on the center of the maze, facing an open arm, and allowing free exploration of the maze for a 5 min test period. An entry was defined by all four paws enter an arm. The total number of arm entries, and the time spent in each type of arm was recorded. The maze was wiped down with 10% ethanol between tests. All experiments were carried out between 9:00 am and 12:00 am.
The difference between control and treatment group was statistically analyzed by one-way analyses of variance (ANOVA). Differences with probabilities of less than 5% (p < 0.05) were regarded as significant.
The PD Plus module implemented in GastroPlus was used. Based on the parameters (R^2 and Akaike criterion) in PK-PD model simulation, the best-fitting model, Sigmoid Emax model, was employed to fit therapeutic PD response (time spent on the open arms) with the brain concentration profile of buagafuran in rat using the equation 4:
(4) E = E0+ EmaxC^γ/EC50 γ+C^γ.
where C is in ng/mL, E0 is the time spent by the control group in the open arms which is equal to 0.63, Emax is the maximum response, EC50 is the concentration of a compound at which 50% of its maximum response is observed and γ is the Hill coefficient. The set of parameter values for the model was determined by GastroPlus software. GastroPlus simulation was then used to predict the brain concentration profile and PD response profile of buagafuran in human.

[5] = oral, 60 mg, multiple dosing (60 mg once daily, 7 days)/first dosing
[6] = oral, 60 mg, multiple dosing (60 mg once daily, 7 days)/last dosing
[7] = po, 30 mg, oral single dosing 30 mg
[8] = po, 60 mg, oral single dosing 60 mg
[9] = po, 120 mg, oral single dosing 120 mg

For `CCCCC1=CCC[C@@]2(C)CC[C@@H]3C[C@]12OC3(C)C` [buagafuran], the “concentration dependence of plasma protein binding” value ([1]; rat plasma) is listed as “no evident concentration-dependent binding”, the fraction unbound at 60 h ([1]; rat, plasma, equilibrium dialysis, read-out: Fup rat (unbound fraction in rat plasma)) is listed as 0.031 and the “substrate of the transporter P-gp” value (P-gp) is listed as “substrate of the transporter P-gp”. It also gave a Cmax [2, 5] of 27.1 ng/mL, an AUC(0-t) [2, 5] of 99.4 ng·h/mL and an AUC(0-inf) [2, 5] of 113 ng·h/mL. The MRT inf [2, 5] was 9.94 h, the Tmax ([2]; oral, 60 mg, multiple dosing (60 mg once daily, 7 days)/first dosing, read-out: Tmax Observed) was 2 h and the Cmax [2, 6] was 32 ng/mL. The AUC(0-t) [2, 6] was 163 ng·h/mL, the AUC(0-inf) [2, 6] was 231 ng·h/mL and the MRT inf [2, 6] was 20.9 h. For the same compound, the Tmax ([2]; oral, 60 mg, multiple dosing (60 mg once daily, 7 days)/last dosing, read-out: Tmax Observed) was 3 h, the Cmax [2, 7] was 19.5 ng/mL and the AUC(0-t) [2, 7] was 47.6 ng·h/mL. It also gave an AUC(0-inf) [2, 7] of 54.9 ng·h/mL, an MRT inf [2, 7] of 3.33 h and a Tmax ([2]; po, 30 mg, oral single dosing 30 mg, read-out: Tmax Observed) of 1 h. For the same compound, the Cmax [2, 8] was 39.8 ng/mL, the AUC(0-t) [2, 8] was 92.4 ng·h/mL and the AUC(0-inf) [2, 8] was 95.4 ng·h/mL. The MRT inf [2, 8] was 4.87 h, the Tmax ([2]; po, 60 mg, oral single dosing 60 mg, read-out: Tmax Observed) was 1 h and the Cmax [2, 9] was 81.6 ng/mL. The AUC(0-t) [2, 9] was 246 ng·h/mL, the AUC(0-inf) [2, 9] was 272 ng·h/mL and the MRT inf [2, 9] was 5.28 h. For the same compound, the Tmax ([2]; po, 120 mg, oral single dosing 120 mg, read-out: Tmax Observed) was 1 h, the Tmax ([2]; po, oral 30–120 mg, read-out: time to peak plasma concentration (Tmax)) was 0.5 to 2 h and the “urine excretion of the dose administered” value [3] was “less than 1%”. For the same compound, the “dose recovered as prototype in the bile” value [4] was under 0.3%, the “dose recovered as prototype in the urine” value [4] was “less than 0.1%” and the “radioactivity recovered in feces” value [4] was 28.7%. The “radioactivity recovered in urine” value [4] was 51.2%, the total radioactivity recovered [4] was “about 80%” and the “time within which activity decreased” value (male Wistar rats; rat EPM, oral 4 mg/kg) was at most 2 h. For the same compound, the “time of maximal level of activity” value (male Wistar rats; rat EPM, oral 4 mg/kg, p < 0.01 versus vehicle) was 15 min, the onset of action (male Wistar rats; rat EPM, oral 4 mg/kg, p < 0.05 versus vehicle) was at most 10 min and the “total time spent in open arms” value (male Wistar rats; rat EPM, oral 2, 4 and 8 mg/kg, dose-dependent, inverted U-shaped) was “significantly prolonged”. For the same compound, the “dose of maximum effect” value (male Wistar rats; rat EPM, oral, p < 0.05 versus vehicle) was 4 mg/kg and the EC50 (male Wistar rats; time spent in open arms vs rat brain concentration, direct sigmoidal Emax model) was 0.0106 µg/mL.
